The structures appear in SMILES notation. pEC50: −log10 of the molar value.

Results on 12 compounds are retold here after US9499550B2 (BRISTOL-MYERS SQUIBB COMPANY, priority 2012, dated 2016).

Assay [1] relates to HCV genotype 1a (H77 strain) replicon in HUH-7 cells. The assay can be described thus: HCV replicon luciferase reporter assay, genotype 1a. The format is cell-based. As to conditions: Hepatitis C virus, Huh-7, 72 h, HCV genotype 1a replicon luciferase, 3 days incubation, read-out: LE_1a (EC50, range). The essentials: (§1)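 Replicon inhibition for both genotypes was measured as Renilla luciferase signal (EnduRen, 7.5 μM final, 2 h) after 3-day, 37° C exposure of replicon-bearing HUH-7 cells in 4% FCS DMEM, 0.5% DMSO. The 1b construct carries S1179I; the 1a H77 construct carries P1496L and S2204I. Twenty-point, 3-fold dilutions were fitted four-parametrically for EC50, and CC50 was taken from multiplexed Cell Titer-Blue.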

For assay [2], the system named is HCV genotype 1b (Con1) replicon in HUH-7 cells. Briefly: HCV replicon luciferase reporter assay, genotype 1b. As to conditions: Hepatitis C virus, Huh-7, 72 h, HCV genotype 1b replicon luciferase, 3 days incubation, read-out: LE_1b (EC50, range). It counts as cell-based. The essentials:
as §1

With `COc1ccc2c(O[C@@H]3C[C@H]4C(=O)N[C@]5(C(=O)NS(=O)(=O)C6CC6)C[C@H]5/C=C\CC[C@H](C)C[C@@H](C)[C@H](NC(=O)NC(C)(C)C)C(=O)N4C3)nc(-c3ccc(OC(C)C)cn3)cc2c1` [Compound 5210, (2R,6S,7R,9S,13aS,14aR,16aS,Z)-6-(3-(tert-butyl)ureido)-N-(cyclopropylsulfonyl)-2-((3-(5-isopropoxypyridin-2-yl)-6-methoxyisoquinolin-1-yl)oxy)-7,9-dimethyl-5,16-dioxo-1,2,3,5,6,7,8,9,10,11,13a,14,14a,15,16,16a-hexadecahydrocyclopropa[e]pyrrolo[1,2-a][1,4]diazacyclopentadecine-14a-carboxamide], the pEC50 in assay [1] and in assay [2] was greater than 8.26 throughout.
As to `COc1ccc2c(O[C@@H]3C[C@H]4C(=O)N[C@]5(C(=O)NS(=O)(=O)C6CC6)C[C@H]5/C=C\CC[C@@H](C)C[C@@H](C)[C@H](NC(=O)NC(C)(C)C)C(=O)N4C3)nc(-c3ccc(OC(C)C)cn3)cc2c1` [Compound 5211, (2R,6S,7R,9R,13aS,14aR,16aS,Z)-6-(3-(tert-butyl)ureido)-N-(cyclopropylsulfonyl)-2-((3-(5-isopropoxypyridin-2-yl)-6-methoxyisoquinolin-1-yl)oxy)-7,9-dimethyl-5,16-dioxo-1,2,3,5,6,7,8,9,10,11,13a,14,14a,15,16,16a-hexadecahydrocyclopropa[e]pyrrolo[1,2-a][1,4]diazacyclopentadecine-14a-carboxamide], the pEC50 in assay [1] and in assay [2] was greater than 8.26 throughout.
For `COc1ccc2c(O[C@@H]3C[C@H]4C(=O)N[C@]5(C(=O)NS(=O)(=O)C6CC6)C[C@H]5/C=C\CC[C@H](C)C[C@@H](C)[C@H](NC(=O)OC(C)(C)C)C(=O)N4C3)nc(-c3ccc(OC(C)C)nc3)cc2c1` [Compound 5212, tert-butyl ((2R,6S,7R,9S,13aS,14aR,16aS,Z)-14a-((cyclopropylsulfonyl)carbamoyl)-2-((3-(6-isopropoxypyridin-3-yl)-6-methoxyisoquinolin-1-yl)oxy)-7,9-dimethyl-5,16-dioxo-1,2,3,5,6,7,8,9,10,11,13a,14,14a,15,16,16a-hexadecahydrocyclopropa[e]pyrrolo[1,2-a][1,4]diazacyclopentadecin-6-yl)carbamate], the pEC50 in assay [1] and in assay [2] was greater than 8.26 throughout.
In the case of `COc1ccc2c(O[C@@H]3C[C@H]4C(=O)N[C@]5(C(=O)NS(=O)(=O)C6CC6)C[C@H]5/C=C\CC[C@@H](C)C[C@@H](C)[C@H](NC(=O)OC(C)(C)C)C(=O)N4C3)nc(-c3ccc(OC(C)C)nc3)cc2c1` [Compound 5213, tert-butyl ((2R,6S,7R,9R,13aS,14aR,16aS,Z)-14a-((cyclopropylsulfonyl)carbamoyl)-2-((3-(6-isopropoxypyridin-3-yl)-6-methoxyisoquinolin-1-yl)oxy)-7,9-dimethyl-5,16-dioxo-1,2,3,5,6,7,8,9,10,11,13a,14,14a,15,16,16a-hexadecahydrocyclopropa[e]pyrrolo[1,2-a][1,4]diazacyclopentadecin-6-yl)carbamate], the pEC50 in assay [1] and in assay [2] was greater than 8.26 throughout.
`COc1ccc2c(O[C@@H]3C[C@H]4C(=O)N[C@]5(C(=O)NS(=O)(=O)C6CC6)C[C@H]5/C=C\CC[C@H](C)C[C@@H](C)[C@H](NC(=O)OC(C)(C)C(F)(F)F)C(=O)N4C3)nc(-c3ccc(OC(C)C)nc3)cc2c1` [Compound 5214, 1,1,1-trifluoro-2-methylpropan-2-yl((2R,6S,7R,9S,13aS,14aR,16aS,Z)-14a-((cyclopropylsulfonyl)carbamoyl)-2-((3-(6-isopropoxypyridin-3-yl)-6-methoxyisoquinolin-1-yl)oxy)-7,9-dimethyl-5,16-dioxo-1,2,3,5,6,7,8,9,10,11,13a,14,14a,15,16,16a-hexadecahydrocyclopropa[e]pyrrolo[1,2-a][1,4]diazacyclopentadecin-6-yl)carbamate]: the pEC50 is 6.99 to 8.32 in assay [1] and greater than 8.26 in assay [2].
For `COc1ccc2c(O[C@@H]3C[C@H]4C(=O)N[C@]5(C(=O)NS(=O)(=O)C6CC6)C[C@H]5/C=C\CC[C@@H](C)C[C@@H](C)[C@H](NC(=O)OC(C)(C)C(F)(F)F)C(=O)N4C3)nc(-c3ccc(OC(C)C)nc3)cc2c1` [Compound 5215, 1,1,1-trifluoro-2-methylpropan-2-yl((2R,6S,7R,9R,13aS,14aR,16aS,Z)-14a-((cyclopropylsulfonyl)carbamoyl)-2-((3-(6-isopropoxypyridin-3-yl)-6-methoxyisoquinolin-1-yl)oxy)-7,9-dimethyl-5,16-dioxo-1,2,3,5,6,7,8,9,10,11,13a,14,14a,15,16,16a-hexadecahydrocyclopropa[e]pyrrolo[1,2-a][1,4]diazacyclopentadecin-6-yl)carbamate] the same measures were greater than 8.26 and greater than 8.26.
Take `[2H]C([2H])([2H])C(OC(=O)N[C@@H]1C(=O)N2C[C@H](Oc3nc(-c4ccc(OC(C)C)nc4)cc4cc(OC)ccc34)C[C@H]2C(=O)N[C@]2(C(=O)NS(=O)(=O)C3CC3)C[C@H]2/C=C\CC[C@H](C)C[C@H]1C)(C([2H])([2H])[2H])C(F)(F)F` [Compound 5216, 1,1,1,3,3,3-hexadeutero-2-(trifluoromethyl)propan-2-yl((2R,6S,7R,9S,13aS,14aR,16aS,Z)-14a-((cyclopropylsulfonyl)carbamoyl)-2-((3-(6-isopropoxypyridin-3-yl)-6-methoxyisoquinolin-1-yl)oxy)-7,9-dimethyl-5,16-dioxo-1,2,3,5,6,7,8,9,10,11,13a,14,14a,15,16,16a-hexadecahydrocyclopropa[e]pyrrolo[1,2-a][1,4]diazacyclopentadecin-6-yl)carbamate]: the pEC50 was 6.99 to 8.32 in assay [1] and greater than 8.26 in assay [2].
With `[2H]C([2H])([2H])C(OC(=O)N[C@@H]1C(=O)N2C[C@H](Oc3nc(-c4ccc(OC(C)C)nc4)cc4cc(OC)ccc34)C[C@H]2C(=O)N[C@]2(C(=O)NS(=O)(=O)C3CC3)C[C@H]2/C=C\CC[C@@H](C)C[C@H]1C)(C([2H])([2H])[2H])C(F)(F)F` [Compound 5217, 1,1,1,3,3,3-hexadeutero-2-(trifluoromethyl)propan-2-yl((2R,6S,7R,9R,13aS,14aR,16aS,Z)-14a-((cyclopropylsulfonyl)carbamoyl)-2-((3-(6-isopropoxypyridin-3-yl)-6-methoxyisoquinolin-1-yl)oxy)-7,9-dimethyl-5,16-dioxo-1,2,3,5,6,7,8,9,10,11,13a,14,14a,15,16,16a-hexadecahydrocyclopropa[e]pyrrolo[1,2-a][1,4]diazacyclopentadecin-6-yl)carbamate], the pEC50 in assay [1] and in assay [2] was greater than 8.26 throughout.
As to `COc1ccc2c(O[C@@H]3C[C@H]4C(=O)N[C@]5(C(=O)NS(=O)(=O)C6CC6)C[C@H]5/C=C\CC[C@H](C)C[C@@H](C)[C@H](NC(=O)OC5C[C@@H]6C[C@@H]6C5)C(=O)N4C3)nc(-c3ccc(OC(C)C)nc3)cc2c1` (stereo partly drawn) [Compound 5218, (1R,3r,5S)-bicyclo[3.1.0]hexan-3-yl((2R,6S,7R,9S,13aS,14aR,16aS,Z)-14a-((cyclopropylsulfonyl)carbamoyl)-2-((3-(6-isopropoxypyridin-3-yl)-6-methoxyisoquinolin-1-yl)oxy)-7,9-dimethyl-5,16-dioxo-1,2,3,5,6,7,8,9,10,11,13a,14,14a,15,16,16a-hexadecahydrocyclopropa[e]pyrrolo[1,2-a][1,4]diazacyclopentadecin-6-yl)carbamate], the pEC50 in assay [1] and in assay [2] was greater than 8.26 in each case.
On to `COc1ccc2c(O[C@@H]3C[C@H]4C(=O)N[C@]5(C(=O)NS(=O)(=O)C6CC6)C[C@H]5/C=C\CC[C@@H](C)C[C@@H](C)[C@H](NC(=O)OC5C[C@@H]6C[C@@H]6C5)C(=O)N4C3)nc(-c3ccc(OC(C)C)nc3)cc2c1` (stereo partly drawn) [Compound 5219, (1R,3r,5S)-bicyclo[3.1.0]hexan-3-yl((2R,6S,7R,9R,13aS,14aR,16aS,Z)-14a-((cyclopropylsulfonyl)carbamoyl)-2-((3-(6-isopropoxypyridin-3-yl)-6-methoxyisoquinolin-1-yl)oxy)-7,9-dimethyl-5,16-dioxo-1,2,3,5,6,7,8,9,10,11,13a,14,14a,15,16,16a-hexadecahydrocyclopropa[e]pyrrolo[1,2-a][1,4]diazacyclopentadecin-6-yl)carbamate], for which the pEC50 in assay [1] and in assay [2] was greater than 8.26 in each case.
Consider `COc1ccc2c(O[C@@H]3C[C@H]4C(=O)N[C@]5(C(=O)NS(=O)(=O)C6CC6)C[C@H]5/C=C\CC[C@H](C)C[C@@H](C)[C@H](NC(=O)NC(C)(C)C)C(=O)N4C3)nc(-c3ccc(OC(C)C)nc3)cc2c1` [Compound 5220, (2R,6S,7R,9S,13aS,14aR,16aS,Z)-6-(3-(tert-butyl)ureido)-N-(cyclopropylsulfonyl)-2-((3-(6-isopropoxypyridin-3-yl)-6-methoxyisoquinolin-1-yl)oxy)-7,9-dimethyl-5,16-dioxo-1,2,3,5,6,7,8,9,10,11,13a,14,14a,15,16,16a-hexadecahydrocyclopropa[e]pyrrolo[1,2-a][1,4]diazacyclopentadecine-14a-carboxamide], for which the pEC50 in assay [1] and in assay [2] was greater than 8.26 each time.
Consider `COc1ccc2c(O[C@@H]3C[C@H]4C(=O)N[C@]5(C(=O)NS(=O)(=O)C6CC6)C[C@H]5/C=C\CC[C@@H](C)C[C@@H](C)[C@H](NC(=O)NC(C)(C)C)C(=O)N4C3)nc(-c3ccc(OC(C)C)nc3)cc2c1` [Compound 5221, (2R,6S,7R,9R,13aS,14aR,16aS,Z)-6-(3-(tert-butyl)ureido)-N-(cyclopropylsulfonyl)-2-((3-(6-isopropoxypyridin-3-yl)-6-methoxyisoquinolin-1-yl)oxy)-7,9-dimethyl-5,16-dioxo-1,2,3,5,6,7,8,9,10,11,13a,14,14a,15,16,16a-hexadecahydrocyclopropa[e]pyrrolo[1,2-a][1,4]diazacyclopentadecine-14a-carboxamide], for which the pEC50 in assay [1] and in assay [2] was greater than 8.26 in each case.
